Reference: ChEMBL document CHEMBL4507271, “Data for DCP probe BAY-707” (2021)

Experiments:
[1] = target: Alpha-2A adrenergic receptor (Homo sapiens) (UniProt P08913); settings: Compound concentration 10.0 uM
[2] = target: Sigma non-opioid intracellular receptor 1 (Homo sapiens) (UniProt Q99720); settings: Compound concentration 10.0 uM
[3] = target: Sodium-dependent noradrenaline transporter (Homo sapiens) (UniProt P23975); settings: Compound concentration 10.0 uM
[4] = target: 5-hydroxytryptamine receptor 1D (Homo sapiens) (UniProt P28221); settings: Compound concentration 10.0 uM
[5] = target: 5-hydroxytryptamine receptor 3A (Homo sapiens) (UniProt P46098); settings: Compound concentration 10.0 uM
Chain of 5-hydroxytryptamine receptor 3A (Homo sapiens) (P46098 whole entry): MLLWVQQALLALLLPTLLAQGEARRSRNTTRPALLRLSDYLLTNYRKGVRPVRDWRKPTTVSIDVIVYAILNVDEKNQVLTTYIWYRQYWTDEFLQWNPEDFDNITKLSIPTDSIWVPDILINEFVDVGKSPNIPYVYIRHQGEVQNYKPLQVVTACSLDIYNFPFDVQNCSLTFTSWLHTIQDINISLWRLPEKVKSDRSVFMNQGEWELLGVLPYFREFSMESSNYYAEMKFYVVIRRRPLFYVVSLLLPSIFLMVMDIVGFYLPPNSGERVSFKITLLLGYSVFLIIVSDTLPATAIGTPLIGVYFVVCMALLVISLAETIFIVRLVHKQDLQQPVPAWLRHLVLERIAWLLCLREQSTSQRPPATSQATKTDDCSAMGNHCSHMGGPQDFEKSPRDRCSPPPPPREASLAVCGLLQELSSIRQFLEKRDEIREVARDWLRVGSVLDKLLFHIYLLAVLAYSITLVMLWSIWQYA

[6] = target: Histamine H1 receptor (Homo sapiens) (UniProt P35367); settings: Compound concentration 10.0 uM
Rattus norvegicus = organism: Rattus norvegicus; settings: Compound concentration 10.0 uM
[7] = target: 5-hydroxytryptamine receptor 1E (Homo sapiens) (UniProt P28566); settings: Compound concentration 10.0 uM
[8] = target: Alpha-1B adrenergic receptor (Homo sapiens) (UniProt P35368); settings: Compound concentration 10.0 uM
[9] = target: 5-hydroxytryptamine receptor 2A (Homo sapiens) (UniProt P28223); settings: Compound concentration 10.0 uM
Chain of 5-hydroxytryptamine receptor 2A (Homo sapiens) (P28223 whole entry): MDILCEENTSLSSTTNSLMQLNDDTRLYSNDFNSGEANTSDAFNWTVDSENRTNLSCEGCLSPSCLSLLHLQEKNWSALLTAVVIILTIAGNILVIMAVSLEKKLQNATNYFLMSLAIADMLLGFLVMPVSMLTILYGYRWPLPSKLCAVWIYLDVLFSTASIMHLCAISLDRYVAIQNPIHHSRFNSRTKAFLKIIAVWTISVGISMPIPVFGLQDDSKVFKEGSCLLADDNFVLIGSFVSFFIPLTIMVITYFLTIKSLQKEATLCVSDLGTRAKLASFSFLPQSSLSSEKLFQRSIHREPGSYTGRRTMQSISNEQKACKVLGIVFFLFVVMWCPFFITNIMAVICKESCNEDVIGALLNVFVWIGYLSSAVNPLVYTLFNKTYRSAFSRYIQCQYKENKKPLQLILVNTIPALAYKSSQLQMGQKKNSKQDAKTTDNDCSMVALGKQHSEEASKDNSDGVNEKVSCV

[10] = target: D(1A) dopamine receptor (Homo sapiens) (UniProt P21728); settings: Compound concentration 10.0 uM
[11] = target: 5-hydroxytryptamine receptor 2C (Homo sapiens) (UniProt P28335); settings: Compound concentration 10.0 uM
[12] = target: Sigma intracellular receptor 2 (Homo sapiens) (UniProt Q5BJF2); settings: Compound concentration 10.0 uM
[13] = target: Alpha-2C adrenergic receptor (Homo sapiens) (UniProt P18825); settings: Compound concentration 10.0 uM
Chain of Alpha-2C adrenergic receptor (Homo sapiens) (P18825 whole entry): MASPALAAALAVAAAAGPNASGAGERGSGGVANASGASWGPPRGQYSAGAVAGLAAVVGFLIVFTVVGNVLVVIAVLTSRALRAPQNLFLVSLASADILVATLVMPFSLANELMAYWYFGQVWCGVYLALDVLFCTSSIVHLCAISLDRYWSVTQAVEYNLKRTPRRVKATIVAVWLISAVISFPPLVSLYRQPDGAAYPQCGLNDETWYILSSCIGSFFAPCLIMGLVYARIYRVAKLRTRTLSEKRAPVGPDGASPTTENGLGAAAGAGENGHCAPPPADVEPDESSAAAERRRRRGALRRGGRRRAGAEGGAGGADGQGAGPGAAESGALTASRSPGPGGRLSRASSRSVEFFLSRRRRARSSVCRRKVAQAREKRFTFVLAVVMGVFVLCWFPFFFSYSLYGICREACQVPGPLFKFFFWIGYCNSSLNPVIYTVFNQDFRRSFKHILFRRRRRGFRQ

[14] = target: T1, GABA-A receptor; anion channel (Rattus norvegicus) (UniProt O09028+P15431+P18506+P18508+P19969+P20236+P23574+P23576+P28471+P28473+P30191+P62813+P63079+P63138+Q91ZM7+Q9ES14); settings: Compound concentration 10.0 uM
[15] = target: Muscarinic acetylcholine receptor M1 (Homo sapiens) (UniProt P11229); settings: Compound concentration 10.0 uM
[16] = target: 5-hydroxytryptamine receptor 7 (Homo sapiens) (UniProt P34969); settings: Compound concentration 10.0 uM
Chain of 5-hydroxytryptamine receptor 7 (Homo sapiens) (P34969 whole entry): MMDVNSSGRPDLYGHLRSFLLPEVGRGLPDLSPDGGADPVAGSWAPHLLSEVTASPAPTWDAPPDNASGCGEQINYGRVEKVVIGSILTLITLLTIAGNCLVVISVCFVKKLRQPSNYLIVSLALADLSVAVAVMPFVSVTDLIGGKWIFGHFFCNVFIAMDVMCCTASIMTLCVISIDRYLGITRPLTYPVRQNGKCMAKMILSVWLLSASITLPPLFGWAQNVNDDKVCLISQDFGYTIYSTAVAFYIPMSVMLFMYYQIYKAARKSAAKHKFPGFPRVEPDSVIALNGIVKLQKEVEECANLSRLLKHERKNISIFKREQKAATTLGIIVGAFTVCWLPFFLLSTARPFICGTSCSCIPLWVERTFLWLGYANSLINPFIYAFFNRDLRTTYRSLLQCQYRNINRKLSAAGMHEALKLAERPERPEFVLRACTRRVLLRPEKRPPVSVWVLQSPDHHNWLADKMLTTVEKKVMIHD

[17] = target: Muscarinic acetylcholine receptor M5 (Homo sapiens) (UniProt P08912); settings: Compound concentration 10.0 uM
Chain of Muscarinic acetylcholine receptor M5 (Homo sapiens) (P08912 whole entry): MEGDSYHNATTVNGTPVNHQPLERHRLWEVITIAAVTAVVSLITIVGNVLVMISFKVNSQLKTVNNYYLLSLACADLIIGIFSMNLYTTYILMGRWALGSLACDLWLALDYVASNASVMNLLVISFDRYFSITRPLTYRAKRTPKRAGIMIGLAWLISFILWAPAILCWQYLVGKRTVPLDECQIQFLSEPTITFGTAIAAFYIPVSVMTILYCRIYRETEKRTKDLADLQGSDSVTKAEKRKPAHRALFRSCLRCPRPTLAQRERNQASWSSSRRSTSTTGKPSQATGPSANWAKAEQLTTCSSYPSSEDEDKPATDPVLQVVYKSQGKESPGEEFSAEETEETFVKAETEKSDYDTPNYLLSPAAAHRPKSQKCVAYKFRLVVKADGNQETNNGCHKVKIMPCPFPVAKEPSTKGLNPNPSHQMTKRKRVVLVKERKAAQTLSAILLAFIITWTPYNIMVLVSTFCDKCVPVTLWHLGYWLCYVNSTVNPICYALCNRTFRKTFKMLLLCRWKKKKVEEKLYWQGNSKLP

[18] = target: D(3) dopamine receptor (Homo sapiens) (UniProt P35462); settings: Compound concentration 10.0 uM
Chain of D(3) dopamine receptor (Homo sapiens) (P35462 whole entry): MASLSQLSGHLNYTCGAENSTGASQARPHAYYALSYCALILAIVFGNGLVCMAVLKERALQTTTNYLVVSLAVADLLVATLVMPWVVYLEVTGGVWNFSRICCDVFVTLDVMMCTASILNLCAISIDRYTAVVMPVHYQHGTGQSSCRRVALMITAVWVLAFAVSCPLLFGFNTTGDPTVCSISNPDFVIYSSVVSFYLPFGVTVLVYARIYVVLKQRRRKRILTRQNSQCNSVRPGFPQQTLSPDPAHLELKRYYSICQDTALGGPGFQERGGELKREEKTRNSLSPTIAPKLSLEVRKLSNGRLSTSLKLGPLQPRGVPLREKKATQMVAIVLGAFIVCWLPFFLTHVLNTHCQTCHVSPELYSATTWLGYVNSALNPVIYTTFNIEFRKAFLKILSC

[19] = target: Muscarinic acetylcholine receptor M3 (Homo sapiens) (UniProt P20309); settings: Compound concentration 10.0 uM
[20] = target: 5-hydroxytryptamine receptor 1B (Homo sapiens) (UniProt P28222); settings: Compound concentration 10.0 uM
[21] = target: D(2) dopamine receptor (Homo sapiens) (UniProt P14416); settings: Compound concentration 10.0 uM
[22] = target: Muscarinic acetylcholine receptor M4 (Homo sapiens) (UniProt P08173); settings: Compound concentration 10.0 uM
[23] = target: Alpha-1A adrenergic receptor (Homo sapiens) (UniProt P35348); settings: Compound concentration 10.0 uM
[24] = target: 5-hydroxytryptamine receptor 6 (Homo sapiens) (UniProt P50406); settings: Compound concentration 10.0 uM
[25] = target: Histamine H3 receptor (Homo sapiens) (UniProt Q9Y5N1); settings: Compound concentration 10.0 uM
[26] = target: Alpha-1D adrenergic receptor (Homo sapiens) (UniProt P25100); settings: Compound concentration 10.0 uM
Chain of Alpha-1D adrenergic receptor (Homo sapiens) (P25100 whole entry): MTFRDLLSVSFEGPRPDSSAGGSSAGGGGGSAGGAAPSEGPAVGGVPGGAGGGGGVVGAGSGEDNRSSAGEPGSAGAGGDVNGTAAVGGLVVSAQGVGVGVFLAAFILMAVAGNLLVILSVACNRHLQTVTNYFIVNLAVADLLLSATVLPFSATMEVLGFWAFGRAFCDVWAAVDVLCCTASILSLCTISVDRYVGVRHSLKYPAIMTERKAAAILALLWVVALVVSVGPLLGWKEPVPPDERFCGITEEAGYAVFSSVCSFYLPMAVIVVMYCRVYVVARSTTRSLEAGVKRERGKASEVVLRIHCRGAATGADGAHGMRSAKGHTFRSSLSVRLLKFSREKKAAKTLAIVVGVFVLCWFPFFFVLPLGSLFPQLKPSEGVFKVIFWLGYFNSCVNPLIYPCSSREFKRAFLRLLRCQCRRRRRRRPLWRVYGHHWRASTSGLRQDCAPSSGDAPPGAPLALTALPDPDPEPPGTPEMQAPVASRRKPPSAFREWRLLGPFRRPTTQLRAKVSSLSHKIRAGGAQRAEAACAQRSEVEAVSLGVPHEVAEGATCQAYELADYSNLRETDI

[27] = target: Muscarinic acetylcholine receptor M2 (Homo sapiens) (UniProt P08172); settings: Compound concentration 10.0 uM
Chain of Muscarinic acetylcholine receptor M2 (Homo sapiens) (P08172 whole entry): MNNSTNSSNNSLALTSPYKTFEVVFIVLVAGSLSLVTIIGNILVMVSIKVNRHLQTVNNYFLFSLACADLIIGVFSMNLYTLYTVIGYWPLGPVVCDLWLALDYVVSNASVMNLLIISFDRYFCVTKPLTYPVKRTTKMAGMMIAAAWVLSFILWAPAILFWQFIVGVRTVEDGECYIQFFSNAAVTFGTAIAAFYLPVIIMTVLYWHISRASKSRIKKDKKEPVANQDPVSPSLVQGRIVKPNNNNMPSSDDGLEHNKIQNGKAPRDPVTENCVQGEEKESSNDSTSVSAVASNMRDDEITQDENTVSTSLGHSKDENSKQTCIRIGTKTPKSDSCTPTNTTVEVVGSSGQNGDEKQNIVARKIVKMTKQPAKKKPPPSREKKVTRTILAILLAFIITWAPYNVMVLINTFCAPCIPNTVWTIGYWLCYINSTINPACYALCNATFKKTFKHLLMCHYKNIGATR

[28] = target: Beta-2 adrenergic receptor (Homo sapiens) (UniProt P07550); settings: Compound concentration 10.0 uM
Chain of Beta-2 adrenergic receptor (Homo sapiens) (P07550 whole entry, looked up): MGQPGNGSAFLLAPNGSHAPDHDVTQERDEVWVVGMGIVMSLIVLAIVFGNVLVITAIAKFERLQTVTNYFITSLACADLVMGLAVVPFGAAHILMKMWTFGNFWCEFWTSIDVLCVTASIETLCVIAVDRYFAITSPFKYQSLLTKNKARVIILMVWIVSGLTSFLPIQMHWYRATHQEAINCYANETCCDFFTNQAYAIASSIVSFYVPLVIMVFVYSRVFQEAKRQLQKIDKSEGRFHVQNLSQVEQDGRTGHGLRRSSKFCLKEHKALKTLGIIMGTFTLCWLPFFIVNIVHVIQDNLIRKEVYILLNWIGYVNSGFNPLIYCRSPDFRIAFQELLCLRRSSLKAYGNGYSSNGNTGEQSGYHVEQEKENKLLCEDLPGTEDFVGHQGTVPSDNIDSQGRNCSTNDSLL

[29] = target: Alpha-2B adrenergic receptor (Homo sapiens) (UniProt P18089); settings: Compound concentration 10.0 uM
[30] = target: Delta-type opioid receptor (Homo sapiens) (UniProt P41143); settings: Compound concentration 10.0 uM
[31] = target: GABA-A receptor; anion channel; experiment: GPCRScan assay: inhibition of GABAA/BZP; assay type: protein-complex assay, Rattus norvegicus; design: radioligand conc. used [nm] 0.6 – 4.0, parental cells brain tissue
D(4) dopamine receptor = D(4) dopamine receptor (Homo sapiens, UniProt P21917); experiment: GPCRScan assay: inhibition of D4; design: radioligand conc. used [nm] 0.6 – 1.7, parental cells Stable HEK
[32] = target: D(4) dopamine receptor (Homo sapiens) (UniProt P21917); settings: Compound concentration 10.0 uM
[33] = target: Mu-type opioid receptor (Homo sapiens) (UniProt P35372); settings: Compound concentration 10.0 uM
Chain of Mu-type opioid receptor (Homo sapiens) (P35372 whole entry): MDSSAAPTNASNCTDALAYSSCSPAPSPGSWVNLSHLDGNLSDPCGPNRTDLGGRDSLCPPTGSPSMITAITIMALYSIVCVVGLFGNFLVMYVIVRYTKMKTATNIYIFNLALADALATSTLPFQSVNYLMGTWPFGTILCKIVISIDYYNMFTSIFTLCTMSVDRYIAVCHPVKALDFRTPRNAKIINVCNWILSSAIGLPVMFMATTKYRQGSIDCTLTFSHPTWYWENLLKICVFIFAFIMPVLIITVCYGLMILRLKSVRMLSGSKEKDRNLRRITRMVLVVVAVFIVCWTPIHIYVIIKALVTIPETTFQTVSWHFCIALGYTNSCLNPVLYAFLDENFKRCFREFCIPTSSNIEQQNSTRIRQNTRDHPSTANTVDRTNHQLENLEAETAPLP

[34] = target: Histamine H2 receptor (Homo sapiens) (UniProt P25021); settings: Compound concentration 10.0 uM
[35] = target: Beta-3 adrenergic receptor (Homo sapiens) (UniProt P13945); settings: Compound concentration 10.0 uM
[36] = target: Histamine H4 receptor (Homo sapiens) (UniProt Q9H3N8); settings: Compound concentration 10.0 uM
[37] = target: Kappa-type opioid receptor (Homo sapiens) (UniProt P41145); settings: Compound concentration 10.0 uM
[38] = target: Oxidized purine nucleoside triphosphate hydrolase (Homo sapiens, UniProt P36639); experiment: PPiLight Biochemical Assay
[39] = target: 5-hydroxytryptamine receptor 1A (Homo sapiens) (UniProt P08908); settings: Compound concentration 10.0 uM
[40] = target: 5-hydroxytryptamine receptor 2B (Homo sapiens) (UniProt P41595); settings: Compound concentration 10.0 uM
[41] = target: T1, GABA-A receptor; anion channel (Rattus norvegicus); settings: Compound concentration 10.0 uM; remark: listed apart in the source
[42] = target: D(1B) dopamine receptor (Homo sapiens) (UniProt P21918); settings: Compound concentration 10.0 uM
[43] = target: 5-hydroxytryptamine receptor 1A (Homo sapiens, UniProt P08908); experiment: GPCRScan assay: inhibition of 5-HT1A; design: radioligand conc. used [nm] 0.5 – 1.0, parental cells stable CHO
[44] = target: Sodium-dependent dopamine transporter (Homo sapiens) (UniProt Q01959); settings: Compound concentration 10.0 uM
[45] = target: 5-hydroxytryptamine receptor 5A (Homo sapiens) (UniProt P47898); settings: Compound concentration 10.0 uM

Chain of Sigma non-opioid intracellular receptor 1 (Homo sapiens) (Q99720 whole entry): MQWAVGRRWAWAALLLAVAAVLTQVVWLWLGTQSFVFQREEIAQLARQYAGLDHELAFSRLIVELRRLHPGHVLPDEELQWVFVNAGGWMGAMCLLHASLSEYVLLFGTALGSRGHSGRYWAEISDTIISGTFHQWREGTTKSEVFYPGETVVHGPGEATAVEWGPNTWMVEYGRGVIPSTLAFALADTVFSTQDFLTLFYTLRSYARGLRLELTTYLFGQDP

Question: `CCNC(=O)c1cc2c(N3CCOC[C@@H]3C)ccnc2n1C` was tested. Which inhibition [1] did it give?
Answer: Its inhibition is 16.9%.

Question: And the inhibition [2]?
Answer: The inhibition was 24.5%.

Question: What about the inhibition [3] of the same compound?
Answer: Its inhibition is 5.35%.

Question: What about the inhibition [4] of the same compound?
Answer: Its inhibition is -0.31%.

Question: What about the inhibition [5] of the same compound?
Answer: The inhibition was 18.6%.

Question: And the inhibition [6]?
Answer: Its inhibition is 26%.

Question: What about the inhibition (Rattus norvegicus) of the same compound?
Answer: The inhibition was 17.2%.

Question: What about the inhibition [7] of the same compound?
Answer: Its inhibition is 9.36%.

Question: What about the inhibition [8] of the same compound?
Answer: The inhibition was 5.71%.

Question: And the inhibition [9]?
Answer: The inhibition was -1.68%.

Question: What about the inhibition [10] of the same compound?
Answer: The inhibition was 14.2%.

Question: What about the inhibition [11] of the same compound?
Answer: The inhibition was 46.2%.

Question: What about the inhibition [12] of the same compound?
Answer: The inhibition was 30.4%.

Question: What about the inhibition [13] of the same compound?
Answer: Its inhibition is -1.28%.

Question: What about the inhibition [14] of the same compound?
Answer: The inhibition was -1.39%.

Question: And the inhibition [15]?
Answer: The inhibition was 11.9%.

Question: And the inhibition [16]?
Answer: Its inhibition is -1.21%.

Question: And the inhibition [17]?
Answer: The inhibition was -0.9%.

Question: And the inhibition [18]?
Answer: The inhibition was 12.1%.

Question: And the inhibition [19]?
Answer: The inhibition was 38%.

Question: And the inhibition [20]?
Answer: Its inhibition is -8.46%.

Question: What about the inhibition [21] of the same compound?
Answer: Its inhibition is -1.89%.

Question: And the inhibition [22]?
Answer: The inhibition was 5.75%.

Question: What about the inhibition [23] of the same compound?
Answer: Its inhibition is 3.94%.

Question: What about the inhibition [24] of the same compound?
Answer: The inhibition was 31.9%.

Question: And the inhibition [25]?
Answer: The inhibition was -6.16%.

Question: What about the inhibition [26] of the same compound?
Answer: Its inhibition is -8.1%.

Question: What about the inhibition [27] of the same compound?
Answer: The inhibition was 7.19%.

Question: And the inhibition [28]?
Answer: Its inhibition is 27.3%.

Question: What about the inhibition [29] of the same compound?
Answer: The inhibition was -2.44%.

Question: What about the inhibition [30] of the same compound?
Answer: Its inhibition is 2.73%.

Question: What about the Ki [31] of the same compound?
Answer: The Ki was 224 nM.

Question: What about the pKi [31] of the same compound?
Answer: The pKi was 6.72.

Question: What about the Ki (D(4) dopamine receptor; read-out: Ki) of the same compound?
Answer: Its Ki is 736 nM.

Question: And the Ki (D(4) dopamine receptor; read-out: pKi (converted))?
Answer: Its Ki is 708 nM.

Question: What about the inhibition [32] of the same compound?
Answer: The inhibition was 77.6%.

Question: What about the inhibition [33] of the same compound?
Answer: Its inhibition is 0.08%.

Question: What about the inhibition [34] of the same compound?
Answer: Its inhibition is -3.91%.

Question: What about the inhibition [35] of the same compound?
Answer: The inhibition was -9.19%.

Question: And the inhibition [36]?
Answer: The inhibition was 5.51%.

Question: What about the inhibition [37] of the same compound?
Answer: The inhibition was 14.6%.

Question: And the IC50 [38]?
Answer: Its IC50 is > 20000 nM (not active).

Question: What about the inhibition [39] of the same compound?
Answer: Its inhibition is -1.88%.

Question: And the inhibition [40]?
Answer: The inhibition was 2.79%.

Question: What about the inhibition [41] of the same compound?
Answer: Its inhibition is 84.2%.

Question: What does the source list for `CCNC(=O)c1cc2c(N3CCOC[C@@H]3C)ccnc2[nH]1`?
Answer: inhibition [1]: 18.1%; inhibition [2]: 24.3%; inhibition [3]: 40.2%; inhibition [4]: -7.55%; inhibition [5]: -1.37%; inhibition [6]: 4.94%; inhibition (Rattus norvegicus): 30.1%; inhibition [7]: 10.6%; inhibition [8]: -2.4%; inhibition [9]: -7.89%; inhibition [10]: 1.92%; inhibition [11]: -4.02%; inhibition [12]: 34.6%; inhibition [13]: 3.16%; inhibition [14]: 28.2%; inhibition [15]: 21.7%; inhibition [16]: -4.45%; inhibition [17]: -4.95%; inhibition [18]: -7.82%; inhibition [20]: -1.66%; inhibition [21]: 12.3%; inhibition [23]: 1.88%; inhibition [24]: -8.52%; inhibition [25]: 40.5%; inhibition [26]: 8.58%; inhibition [27]: -1.26%; inhibition [28]: -6.09%; inhibition [29]: 34.4%; inhibition [30]: -0.04%; Ki [31]: 1530 nM; inhibition [42]: 34.3%; Ki [43]: 10000 nM; inhibition [32]: -3.84%; inhibition [33]: 24.8%; inhibition [34]: 1.31%; inhibition [35]: 14.3%; inhibition [36]: 0.0286%; inhibition [37]: 13.1%; inhibition [39]: 69.8%; inhibition [44]: 25.5%; inhibition [40]: 47.1%; inhibition [45]: -8.05%; inhibition [41]: 57.3%
